Columns and labels:
Test in all cases: relative viability (nuclei count vs DMSO), 5 days (fraction); higher = more cells survive
NCI-H1944 = tested on: NCI-H1944
How it was run: (§1)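 Cells from lung cancer lines were seeded into 1536-well plates and, one day later, dosed by pin tool. Treatments were either a single drug or a fixed dose of an anchor drug with five library-drug doses (not always all listed) in √10 steps. After 5 days, nuclei were stained in a one-step fixation (final 0.05% Triton X-100, 1% formaldehyde, 1 ug/ml Hoechst) and counted on 4× images, and relative viability is the treated-to-vehicle nuclei ratio, as the median of duplicate plates.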

NCI-H2170 = tested on: NCI-H2170
How it was run: as §1

NCI-H2087 = tested on: NCI-H2087
How it was run: as §1

NCI-H3122 = tested on: NCI-H3122
How it was run: as §1

NCI-H1651 = tested on: NCI-H1651
How it was run: as §1

NCI-H2405 = tested on: NCI-H2405
How it was run: as §1

ChaGo-K-1 = tested on: ChaGo-K-1
How it was run: as §1

HCC-366 = tested on: HCC-366
How it was run: as §1

NCI-H1755 = tested on: NCI-H1755
How it was run: as §1

NCI-H2228 = tested on: NCI-H2228
How it was run: as §1

RERF-LC-KJ = tested on: RERF-LC-KJ
How it was run: as §1

NCI-H460 = tested on: NCI-H460
How it was run: as §1

UMC-11 = tested on: UMC-11
How it was run: as §1

LOU-NH91 = tested on: LOU-NH91
How it was run: as §1

NCI-H1793 = tested on: NCI-H1793
How it was run: as §1

NCI-H1395 = tested on: NCI-H1395
How it was run: as §1

LU99A = tested on: LU99A
How it was run: as §1

LC-2-ad = tested on: LC-2-ad
How it was run: as §1

CAL-12T = tested on: CAL-12T
How it was run: as §1

HCC-78 = tested on: HCC-78
How it was run: as §1

ABC-1 = tested on: ABC-1
How it was run: as §1

PC-3 [JPC-3] = tested on: PC-3 [JPC-3]
How it was run: as §1

Nc1ccn([C@@H]2O[C@H](CO)[C@@H](O)[C@@H]2O)c(=O)n1 [Cytarabine] + O=C(c1cc(Cc2n[nH]c(=O)c3ccccc23)ccc1F)N1CCN(C(=O)C2CC2)CC1 [Olaparib] (partner 8 µM)
relative viability (NCI-H1944; first compound 0.005 µM): 0.438
relative viability (NCI-H1944; first compound 0.01581 µM): 0.33
relative viability (NCI-H1944; first compound 0.05 µM): 0.322
relative viability (NCI-H1944; first compound 0.1581 µM): 0.204
relative viability (NCI-H1944; first compound 0.5 µM): 0.156
relative viability (NCI-H2170; first compound 0.005 µM): 0.544
relative viability (NCI-H2170; first compound 0.01581 µM): 0.47
relative viability (NCI-H2170; first compound 0.05 µM): 0.408
relative viability (NCI-H2170; first compound 0.1581 µM): 0.265
relative viability (NCI-H2170; first compound 0.5 µM): 0.23
relative viability (NCI-H2087; first compound 0.005 µM): 0.413
relative viability (NCI-H2087; first compound 0.01581 µM): 0.618
relative viability (NCI-H2087; first compound 0.05 µM): 0.578
relative viability (NCI-H2087; first compound 0.1581 µM): 0.348
relative viability (NCI-H2087; first compound 0.5 µM): 0.19
relative viability (NCI-H3122; first compound 0.005 µM): 0.545
relative viability (NCI-H3122; first compound 0.01581 µM): 0.658
relative viability (NCI-H3122; first compound 0.05 µM): 0.585
relative viability (NCI-H3122; first compound 0.1581 µM): 0.389
relative viability (NCI-H3122; first compound 0.5 µM): 0.304
relative viability (NCI-H1651; first compound 0.005 µM): 0.187
relative viability (NCI-H1651; first compound 0.01581 µM): 0.193
relative viability (NCI-H1651; first compound 0.05 µM): 0.181
relative viability (NCI-H1651; first compound 0.1581 µM): 0.199
relative viability (NCI-H1651; first compound 0.5 µM): 0.168
relative viability (NCI-H2405; first compound 0.005 µM): 0.737
relative viability (NCI-H2405; first compound 0.01581 µM): 0.605
relative viability (NCI-H2405; first compound 0.05 µM): 0.509
relative viability (NCI-H2405; first compound 0.1581 µM): 0.396
relative viability (NCI-H2405; first compound 0.5 µM): 0.336
relative viability (ChaGo-K-1; first compound 0.005 µM): 0.414
relative viability (ChaGo-K-1; first compound 0.01581 µM): 0.417
relative viability (ChaGo-K-1; first compound 0.05 µM): 0.32
relative viability (ChaGo-K-1; first compound 0.1581 µM): 0.238
relative viability (ChaGo-K-1; first compound 0.5 µM): 0.209
relative viability (HCC-366; first compound 0.005 µM): 0.316
relative viability (HCC-366; first compound 0.01581 µM): 0.362
relative viability (HCC-366; first compound 0.05 µM): 0.32
relative viability (HCC-366; first compound 0.1581 µM): 0.136
relative viability (HCC-366; first compound 0.5 µM): 0.0939
relative viability (NCI-H1755; first compound 0.005 µM): 0.893
relative viability (NCI-H1755; first compound 0.01581 µM): 0.889
relative viability (NCI-H1755; first compound 0.05 µM): 0.584
relative viability (NCI-H1755; first compound 0.1581 µM): 0.398
relative viability (NCI-H1755; first compound 0.5 µM): 0.342
relative viability (NCI-H2228; first compound 0.005 µM): 0.379
relative viability (NCI-H2228; first compound 0.01581 µM): 0.203
relative viability (NCI-H2228; first compound 0.05 µM): 0.19
relative viability (NCI-H2228; first compound 0.1581 µM): 0.13
relative viability (NCI-H2228; first compound 0.5 µM): 0.129
relative viability (RERF-LC-KJ; first compound 0.005 µM): 0.886
relative viability (RERF-LC-KJ; first compound 0.01581 µM): 0.806
relative viability (RERF-LC-KJ; first compound 0.05 µM): 0.655
relative viability (RERF-LC-KJ; first compound 0.1581 µM): 0.459
relative viability (RERF-LC-KJ; first compound 0.5 µM): 0.277
relative viability (NCI-H460; first compound 0.005 µM): 0.355
relative viability (NCI-H460; first compound 0.01581 µM): 0.367
relative viability (NCI-H460; first compound 0.05 µM): 0.237
relative viability (NCI-H460; first compound 0.1581 µM): 0.0662
relative viability (NCI-H460; first compound 0.5 µM): 0.0537
relative viability (UMC-11; first compound 0.005 µM): 0.345
relative viability (UMC-11; first compound 0.01581 µM): 0.329
relative viability (UMC-11; first compound 0.05 µM): 0.302
relative viability (UMC-11; first compound 0.1581 µM): 0.248
relative viability (UMC-11; first compound 0.5 µM): 0.218
relative viability (LOU-NH91; first compound 0.005 µM): 0.89
relative viability (LOU-NH91; first compound 0.01581 µM): 0.905
relative viability (LOU-NH91; first compound 0.05 µM): 0.833
relative viability (LOU-NH91; first compound 0.1581 µM): 0.676
relative viability (LOU-NH91; first compound 0.5 µM): 0.625
relative viability (NCI-H1793; first compound 0.005 µM): 0.989
relative viability (NCI-H1793; first compound 0.01581 µM): 0.847
relative viability (NCI-H1793; first compound 0.05 µM): 0.887
relative viability (NCI-H1793; first compound 0.1581 µM): 0.359
relative viability (NCI-H1793; first compound 0.5 µM): 0.244
relative viability (NCI-H1395; first compound 0.005 µM): 0.463
relative viability (NCI-H1395; first compound 0.01581 µM): 0.432
relative viability (NCI-H1395; first compound 0.05 µM): 0.396
relative viability (NCI-H1395; first compound 0.1581 µM): 0.41
relative viability (NCI-H1395; first compound 0.5 µM): 0.335
relative viability (LU99A; first compound 0.005 µM): 0.307
relative viability (LU99A; first compound 0.01581 µM): 0.28
relative viability (LU99A; first compound 0.05 µM): 0.24
relative viability (LU99A; first compound 0.1581 µM): 0.24
relative viability (LU99A; first compound 0.5 µM): 0.241
relative viability (LC-2-ad; first compound 0.005 µM): 0.697
relative viability (LC-2-ad; first compound 0.01581 µM): 0.617
relative viability (LC-2-ad; first compound 0.05 µM): 0.65
relative viability (LC-2-ad; first compound 0.1581 µM): 0.58
relative viability (LC-2-ad; first compound 0.5 µM): 0.474
relative viability (CAL-12T; first compound 0.005 µM): 0.859
relative viability (CAL-12T; first compound 0.01581 µM): 0.68
relative viability (CAL-12T; first compound 0.05 µM): 0.537
relative viability (CAL-12T; first compound 0.1581 µM): 0.288
relative viability (CAL-12T; first compound 0.5 µM): 0.223
relative viability (HCC-78; first compound 0.005 µM): 0.906
relative viability (HCC-78; first compound 0.01581 µM): 0.849
relative viability (HCC-78; first compound 0.05 µM): 0.583
relative viability (HCC-78; first compound 0.1581 µM): 0.419
relative viability (HCC-78; first compound 0.5 µM): 0.278
relative viability (ABC-1; first compound 0.005 µM): 0.7
relative viability (ABC-1; first compound 0.01581 µM): 0.756
relative viability (ABC-1; first compound 0.05 µM): 0.991
relative viability (ABC-1; first compound 0.1581 µM): 0.672
relative viability (ABC-1; first compound 0.5 µM): 0.61
relative viability (PC-3 [JPC-3]; first compound 0.005 µM): 0.508
relative viability (PC-3 [JPC-3]; first compound 0.01581 µM): 1.09
relative viability (PC-3 [JPC-3]; first compound 0.05 µM): 0.971
relative viability (PC-3 [JPC-3]; first compound 0.1581 µM): 0.682
relative viability (PC-3 [JPC-3]; first compound 0.5 µM): 0.617

— the supplement of paper PMC10307832
